{"source": "paper PMC8210147", "about": "“Characterization of the MurT/GatD complex in Mycobacterium tuberculosis towards validating a novel anti-tubercular drug target” (JAC-Antimicrobial Resistance, 2021)", "biological_target": "Rv3712 (mycobacterial MurT) (Mycobacterium tuberculosis, UniProt I6Y4C7)", "sequence (I6Y4C7 entry or part of it)": "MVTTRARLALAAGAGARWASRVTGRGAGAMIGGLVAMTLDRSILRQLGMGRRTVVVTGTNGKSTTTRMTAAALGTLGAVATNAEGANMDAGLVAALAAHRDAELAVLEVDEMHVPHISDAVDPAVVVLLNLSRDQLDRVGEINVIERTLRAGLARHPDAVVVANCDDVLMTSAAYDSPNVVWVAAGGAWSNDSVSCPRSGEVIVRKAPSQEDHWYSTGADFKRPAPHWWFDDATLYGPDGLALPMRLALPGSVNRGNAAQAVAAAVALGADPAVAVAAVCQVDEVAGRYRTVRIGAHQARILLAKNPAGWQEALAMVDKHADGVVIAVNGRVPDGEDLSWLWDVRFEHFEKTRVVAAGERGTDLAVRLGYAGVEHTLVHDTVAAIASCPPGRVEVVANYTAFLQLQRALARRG"}
{"smiles": "Nc1ncnc2c1ncn2[C@@H]1O[C@H](COP(=O)(O)OP(=O)(O)OP(=O)(O)O)[C@@H](O)[C@H]1O", "note": "[ATP]", "values": [{"measurement": "inorganic phosphate release (PiColorLock Gold), 30 min", "value": "Rv3712 was found to be an ATPase"}]}
